In paper PMC11968843, “Sulphostin-inspired N-phosphonopiperidones as selective covalent DPP8 and DPP9 inhibitors” (Nature Communications, 2025):
Like-named read-outs stand apart in the source and are kept apart here.

Columns and labels:
Format in all cases: biochemical
DPP9 [1] = target: T1, DPP9 (Homo sapiens, UniProt Q86TI2); test: biochemical; set-up: purchased Proteros Biostructures GmbH, Germany
Method in brief: (§1)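 Initial velocity of AMC release from fluorogenic GP-AMC substrate read for up to 60 min at 30 °C in HEPES/KOH pH 7.3 buffer with 1 mM DTT. Enzyme (10 nM) preincubated 45 min at 30 °C with inhibitor (0–100 μM, 1% DMSO). IC50 from four-parameter variable-slope fit of triplicates.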

DPP9 [2] = target: T1, DPP9; test: Time-dependent DPP9 inhibition kinetics (kobs, KI, kinact, kapp); set-up: purchased Proteros Biostructures GmbH, Germany; details: DPP9, n=3
Protocol: (§2) To calculate the reaction rate of covalent bond formation between DPP proteins and inhibitor, kinact, KI and kapp was determined as previously described[30],[51]. Therefore, 250 µM GP-AMC was added simultaneously with a serial dilution of the inhibitor to 10 nM enzyme. Enzyme activity was measured for a maximum of 120 min at 30 °C, and fluorescence intensities were then plotted against time. Data was fitted to the following equation: Y=(vi/kobs)*(1−exp(−kobs*X)) using Graph-Pad Prism v10.2.3. The obtained pseudo-first-order rate constant was used to determine the maximum enzyme inhibition rate (kinact) and binding affinity (KI) by fitting the plot of kobs against inhibitor concentration to the following equation: Y=kinact/1+(KI/[I]) . The efficiency of covalent bond formation (kapp) was calculated by the ratio of kinact/KI. All measurements were performed in triplicates and error bars represent standard errors of the fit.

DPP8 [3] = target: T2, DPP8 (Homo sapiens, UniProt Q6V1X1); test: Time-dependent DPP8 inhibition kinetics (kobs, KI, kinact, kapp); details: for kobs: n=3
T2 construct: purchased Proteros Biostructures GmbH, Germany
T2 sequence (Q6V1X1 whole entry): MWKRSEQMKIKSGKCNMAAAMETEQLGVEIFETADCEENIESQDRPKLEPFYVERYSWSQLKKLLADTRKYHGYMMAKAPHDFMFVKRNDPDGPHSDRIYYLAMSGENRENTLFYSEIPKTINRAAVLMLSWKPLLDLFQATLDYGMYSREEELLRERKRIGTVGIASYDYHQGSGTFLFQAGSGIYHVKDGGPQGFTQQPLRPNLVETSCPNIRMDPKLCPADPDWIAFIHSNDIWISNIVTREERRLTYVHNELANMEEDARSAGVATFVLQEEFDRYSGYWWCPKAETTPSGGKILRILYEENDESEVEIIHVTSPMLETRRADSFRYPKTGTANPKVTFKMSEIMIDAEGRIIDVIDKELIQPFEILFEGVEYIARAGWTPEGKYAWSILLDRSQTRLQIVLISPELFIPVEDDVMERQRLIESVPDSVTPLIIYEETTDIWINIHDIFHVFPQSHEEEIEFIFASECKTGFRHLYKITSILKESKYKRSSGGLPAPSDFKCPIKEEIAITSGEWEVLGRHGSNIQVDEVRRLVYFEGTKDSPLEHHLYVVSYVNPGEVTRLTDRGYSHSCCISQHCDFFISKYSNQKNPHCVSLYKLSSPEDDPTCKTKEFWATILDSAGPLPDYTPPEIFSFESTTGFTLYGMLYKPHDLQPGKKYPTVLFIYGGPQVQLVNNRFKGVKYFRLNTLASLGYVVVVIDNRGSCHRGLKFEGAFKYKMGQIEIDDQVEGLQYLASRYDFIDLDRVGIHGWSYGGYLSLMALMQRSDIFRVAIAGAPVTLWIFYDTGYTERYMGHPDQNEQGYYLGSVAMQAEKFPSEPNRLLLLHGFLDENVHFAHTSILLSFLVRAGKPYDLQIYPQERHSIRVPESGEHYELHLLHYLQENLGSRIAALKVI
Protocol: as §2

DPP4 [4] = target: T3, DPP4 (Homo sapiens, UniProt P27487); details: DPP4, n=3
T3 construct: purchased Proteros Biostructures GmbH, Germany
T3 sequence (P27487 whole entry): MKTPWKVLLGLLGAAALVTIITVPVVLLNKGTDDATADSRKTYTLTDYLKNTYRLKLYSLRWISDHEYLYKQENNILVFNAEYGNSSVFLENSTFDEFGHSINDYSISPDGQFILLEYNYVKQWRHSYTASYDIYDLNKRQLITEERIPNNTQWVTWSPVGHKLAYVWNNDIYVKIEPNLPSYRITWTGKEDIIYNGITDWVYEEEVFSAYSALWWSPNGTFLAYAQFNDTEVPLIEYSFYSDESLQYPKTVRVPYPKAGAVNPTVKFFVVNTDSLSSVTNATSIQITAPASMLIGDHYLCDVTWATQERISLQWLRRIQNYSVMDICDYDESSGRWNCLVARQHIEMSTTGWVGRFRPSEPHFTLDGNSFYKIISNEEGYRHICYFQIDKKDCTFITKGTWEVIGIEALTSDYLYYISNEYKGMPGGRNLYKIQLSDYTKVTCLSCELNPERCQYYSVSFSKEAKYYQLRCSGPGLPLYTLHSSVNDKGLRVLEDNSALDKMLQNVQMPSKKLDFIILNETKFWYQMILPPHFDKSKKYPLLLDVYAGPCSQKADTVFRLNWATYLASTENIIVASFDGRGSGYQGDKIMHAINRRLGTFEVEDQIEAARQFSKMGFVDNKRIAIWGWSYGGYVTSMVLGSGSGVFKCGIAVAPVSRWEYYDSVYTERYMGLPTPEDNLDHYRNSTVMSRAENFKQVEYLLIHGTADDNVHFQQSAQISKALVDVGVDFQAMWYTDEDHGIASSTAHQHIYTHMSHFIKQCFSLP
Protocol: as §2, with “Therefore, 250 µM GP-AMC was added simultaneously with a serial dilution of the inhibitor to 10 nM enzyme.” left out

DPP8 [5] = target: T2, DPP8; test: biochemical
Method in brief: as §1

DPP4 [6] = target: T3, DPP4; test: biochemical
Method in brief: as §1

T1 sequence (Q86TI2 whole entry): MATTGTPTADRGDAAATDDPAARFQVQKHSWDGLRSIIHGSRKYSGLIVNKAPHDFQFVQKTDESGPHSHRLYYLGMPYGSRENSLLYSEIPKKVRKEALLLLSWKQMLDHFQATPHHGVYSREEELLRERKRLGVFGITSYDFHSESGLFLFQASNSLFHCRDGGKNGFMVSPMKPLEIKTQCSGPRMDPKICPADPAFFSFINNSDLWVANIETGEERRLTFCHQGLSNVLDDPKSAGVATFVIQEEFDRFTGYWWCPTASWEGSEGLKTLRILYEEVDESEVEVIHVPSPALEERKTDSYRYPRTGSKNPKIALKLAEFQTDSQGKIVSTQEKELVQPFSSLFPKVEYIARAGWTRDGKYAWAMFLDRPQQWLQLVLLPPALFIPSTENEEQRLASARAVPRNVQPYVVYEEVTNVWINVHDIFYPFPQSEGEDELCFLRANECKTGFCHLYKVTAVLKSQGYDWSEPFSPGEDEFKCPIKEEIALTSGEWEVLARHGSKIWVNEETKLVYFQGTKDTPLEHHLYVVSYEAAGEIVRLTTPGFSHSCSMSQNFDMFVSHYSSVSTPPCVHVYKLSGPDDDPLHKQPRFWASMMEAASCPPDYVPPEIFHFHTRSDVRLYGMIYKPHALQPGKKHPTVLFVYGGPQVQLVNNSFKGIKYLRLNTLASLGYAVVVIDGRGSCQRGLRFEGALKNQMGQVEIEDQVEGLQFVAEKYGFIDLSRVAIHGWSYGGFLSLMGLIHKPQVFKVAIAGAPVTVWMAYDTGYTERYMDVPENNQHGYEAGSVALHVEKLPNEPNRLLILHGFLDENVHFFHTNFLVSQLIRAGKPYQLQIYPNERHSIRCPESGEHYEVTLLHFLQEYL

CCCCCCP(=O)(OCC)N1CCC[C@H](N)C1=O (some centres unmarked) [Compound 5]
IC50 (DPP9 [1]): 42.7 µM
remaining activity at 1.5625 µM (DPP9 [1]; read-out: DPP9 activity [%], c 1562.5 nM, replicates): 97%
remaining activity at 3.125 µM (DPP9 [1]; read-out: DPP9 activity [%], c 3125 nM, replicates): 96.9%
remaining activity at 6.25 µM (DPP9 [1]; read-out: DPP9 activity [%], c 6250 nM, replicates): 89.1%
remaining activity at 15.625 µM (DPP9 [1]; read-out: DPP9 activity [%], c 15625 nM, replicates): 77.4%
remaining activity at 25 µM (DPP9 [1]; read-out: DPP9 activity [%], c 25000 nM, replicates): 65.7%
remaining activity at 31.25 µM (DPP9 [1]; read-out: DPP9 activity [%], c 31250 nM, replicates): 60.7%
remaining activity at 50 µM (DPP9 [1]; read-out: DPP9 activity [%], c 50000 nM, replicates): 45.5%
remaining activity at 62.5 µM (DPP9 [1]; read-out: DPP9 activity [%], c 62500 nM, replicates): 38.8%
remaining activity at 100 µM (DPP9 [1]; read-out: DPP9 activity [%], c 100000 nM, replicates): 22.1%
remaining activity at 250 µM (DPP9 [1]; read-out: DPP9 activity [%], c 250000 nM, replicates): 5.77%
remaining activity at 500 µM (DPP9 [1]; read-out: DPP9 activity [%], c 500000 nM, replicates): 1.09%
kobs (DPP9 [2]; c 25000 nM): 0.000207 s⁻¹
kobs (DPP9 [2]; c 50000 nM): 0.000227 s⁻¹
kobs (DPP9 [2]; c 100000 nM): 0.000318 s⁻¹
kapp (DPP8 [3]; DPP8): 36.00 M⁻¹ s⁻¹
kinact best fit (DPP8 [3]; DPP8): 0.0004148 s⁻¹
kobs (DPP8 [3]; DPP8, c 1562.5 nM): 9.14e-05 s⁻¹
kobs (DPP8 [3]; DPP8, c 6250 nM): 0.000151 s⁻¹
kobs (DPP8 [3]; DPP8, c 25000 nM): 0.000235 s⁻¹
kobs (DPP8 [3]; DPP8, c 50000 nM): 0.00037 s⁻¹
kapp DPP8 (DPP8 [3]; ratio kinact/KI): 36 M⁻¹ s⁻¹
KI (inactivation) (DPP8 [3]; read-out: KI DPP8, irreversible inhibition, fit of kobs vs inhibitor concentration): 11.5 µM
KI (inactivation) (DPP8 [3]; read-out: KI best fit, DPP8): 11.5 µM
KI (inactivation) (DPP8 [3]; read-out: KI best fit, DPP8, fit of kobs vs inhibitor concentration): 11.5 µM
kinact (DPP8 [3]; read-out: kinact DPP8, irreversible inhibition, fit of kobs vs inhibitor concentration): 0.00042 ± 7e-05 s⁻¹
kinact (DPP8 [3]; read-out: kinact best fit, DPP8): 0.000415 s⁻¹
kobs (DPP4 [4]; c 25000 nM): 0.001878 s⁻¹
kobs (DPP4 [4]; c 50000 nM): 0.001819 s⁻¹
kobs (DPP4 [4]; c 100000 nM): 0.001824 s⁻¹
IC50 (DPP8 [5]): 13.7 µM
remaining activity at 1.5625 µM (DPP8 [5]; read-out: DPP8 activity [%], c 1562.5 nM, replicates): 94.2%
remaining activity at 3.125 µM (DPP8 [5]; read-out: DPP8 activity [%], c 3125 nM, replicates): 84.3%
remaining activity at 6.25 µM (DPP8 [5]; read-out: DPP8 activity [%], c 6250 nM, replicates): 64.1%
remaining activity at 15.625 µM (DPP8 [5]; read-out: DPP8 activity [%], c 15625 nM, replicates): 42.1%
remaining activity at 25 µM (DPP8 [5]; read-out: DPP8 activity [%], c 25000 nM, replicates): 28.4%
remaining activity at 31.25 µM (DPP8 [5]; read-out: DPP8 activity [%], c 31250 nM, replicates): 19.4%
remaining activity at 50 µM (DPP8 [5]; read-out: DPP8 activity [%], c 50000 nM, replicates): 13.9%
remaining activity at 62.5 µM (DPP8 [5]; read-out: DPP8 activity [%], c 62500 nM, replicates): 4.38%
remaining activity at 100 µM (DPP8 [5]; read-out: DPP8 activity [%], c 100000 nM, replicates): 5.19%
IC50 (DPP4 [6]; IC50 DPP4, GP-AMC 250 µM, 10 nM enzyme, 45 min pre-incubation at 30 °C): 46.7 µM
remaining activity at 1.5625 µM (DPP4 [6]; read-out: DPP4 activity [%], c 1562.5 nM, replicates): 101%
remaining activity at 3.125 µM (DPP4 [6]; read-out: DPP4 activity [%], c 3125 nM, replicates): 103%
remaining activity at 6.25 µM (DPP4 [6]; read-out: DPP4 activity [%], c 6250 nM, replicates): 105%
remaining activity at 25 µM (DPP4 [6]; read-out: DPP4 activity [%], c 25000 nM, replicates): 79.6%
remaining activity at 50 µM (DPP4 [6]; read-out: DPP4 activity [%], c 50000 nM, replicates): 44.3%
remaining activity at 100 µM (DPP4 [6]; read-out: DPP4 activity [%], c 100000 nM, replicates): 23.3%
